Experimental findings from PubChem BioAssay AID2060497 (Molecular Pharmacology Branch, DTP, NCI, 2025) are described below.

For orientation: pIC50 means the IC50 on a negative log10 scale, so that one unit is a factor of ten. The term viability, T/C denotes the result in the treated group divided by that in the control group, in per cent.

In this assay the test system is 317291-083-R-J1-PDC complex spheroids, viability. The experiment in a line: Anticancer human tumor 317291-083-R-J1-PDC patient-derived soft tissue sarcoma cell line growth inhibition [GQUAD]. Particulars: for viability, T/C: stronger effect = lower value. From the text:
DNA G-quadruplex Stabilizer Agents in Combinations in Complex Spheroids
A high-throughput screen of multi-cell type tumor spheroids was designed to identify active combinations of DNA G-quadruplex stabilizer agents and targeted small molecules. Complex spheroids include a stromal component modeled by human endothelial cells (HUVEC) and fibroblasts modeled by human mesenchymal stem cells (MSCs). The concentration ranges selected for each drug and investigational agent were based upon clinically achievable concentrations if the clinical Cmax of the agent was known.
Compounds. The drugs and investigational agents: pidnarulex (CX-5461; NSC782164), APTO-253 (NSC789042), BRACO-19 (NSC847499), peposertib (NSC802822), ceralasertib (NSC780249), elimusertib (NSC800525), camonsertib (NSC841442), AZD-1390 (NSC803789), olaparib (NSC753686), talazoparib (NSC767125), ART-558 (NSC835418), sotorasib (NSC818433), MRTX-1133 (NSC836407), SN-38 (NSC673596), topotecan (NSC609699), etoposide (NSC141540), doxorubicin (NSC123127), gemcitabine (NSC613327), 5-fluorouracil (NSC19893), paclitaxel (NSC125973), vemurafenib (NSC761431), panobinostat (NSC761190), R-306465 (JNJ-16241199; NSC773264), adavosertib (NSC754352), TP-3654 (NSC805149), carboplatin (NSC241240), KSQ-4279 (NSC840948), and staurosporine (NSC755774) were obtained from the National Cancer Institute (NCI) Developmental Therapeutics Program Chemical Repository (34). The FDA-approved anticancer drug set is available from the NCI Developmental Therapeutics Program. […] The stock solutions were prepared in dimethyl sulfoxide (DMSO, Sigma-Aldrich, St. Louis, MO, cat. D2650) at 800-fold the tested concentration and stored at -70 degrees C prior to their use. All drugs and investigational agents were tested over a range starting from a high concentration at or near the clinical Cmax and decreasing in half-log increments. If the clinical Cmax for an agent had not been determined, the highest concentration tested was 10 microM.
2.3 Cell Culture. All cells were maintained in an incubator at 37 degrees C and 5% CO2 with 95% humidity. The PDC lines were cultured according to standard operating procedures established by the NCI PDMR. All PDCs were thawed and cultured in Matrigel-coated flasks prepared with a working solution of 1X Ham's F-12 nutrient mix, without supplementation (Invitrogen, cat. 11765054), 100 U/mL penicillin-streptomycin (Invitrogen, cat. 15140122), and 2.5% Matrigel (Corning Inc., cat. 354248) for the first three passages. The 857933-349-R-J2-PDC line was cultured in 6C/Colon 1B media, which includes advanced DMEM/F-12 (Thermo Fisher Scientific, cat. 12634028), 10 mM HEPES (Thermo Fisher Scientific, cat. 15630080), 1X GlutaMAX supplement (Thermo Fisher Scientific, cat. 35050061), 0.1 mg/mL primocin (InvivoGen, cat. ant-pm-2), 10% defined fetal bovine serum, heat inactivated (HyClone Laboratories Inc., cat. SH30070.03HI), 50% L-WRN conditioned media (ATCC, cat. CRL-3276), 1.25 mM N-Acetyl-L-cysteine (Sigma-Aldrich, cat. A9165), 10 mM nicotinamide (Sigma-Aldrich, cat. N0636), 1X B-27 supplement (Thermo Fisher Scientific, cat. 17504044), 1X N-2 supplement (Thermo Fisher Scientific, cat. 17502048), 10 microM Y-27632 dihydrochloride (Tocris Bioscience, cat. 1254), and 50 ng/mL human EGF recombinant protein (Thermo Fisher Scientific, cat. PHG0311). The 485176-168-R4-J1-PDC line was cultured in Panc media, which includes all 6C/Colon 1B media components plus 100 ng/mL human FGF-10 (Thermo Fisher Scientific, cat. 100-26), 500 nM SB-431542 (Selleckchem, cat. S1067), and gastrin (Tocris, cat. 3006).
[…]

pIC50: −log10 of the molar value. Where “and” joins values, the source holds several entries; their conditions need not be identical. Equal entries are not always repeated.
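Further: spheroids exposed to compounds for one week before readout.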
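Wherever viability, T/C is given: percent viability relative to DMSO vehicle wells taken as 100%.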

For the compound `O=C(NO)c1cnc(N2CCN(S(=O)(=O)c3ccc4ccccc4c3)CC2)nc1` + CN(C)c1ccc(Nc2c3ccc(NC(=O)CCN4CCCC4)cc3nc3cc(NC(=O)CCN4CCCC4)ccc23)cc1, the pIC50 (curve of first compound, second compound 0.0316 µM) is 6.92; the negative logarithm of the IC50 (pIC50) (curve of first compound, second compound 0.1 µM) was 6.87; the pIC50 (curve of first compound, second compound 0.316 µM) was 7.10; the pIC50 (curve of first compound, second compound 1 µM) is above 7.50; the pIC50 (curve of first compound, second compound 3.16 µM) is above 7.50; the pIC50 (curve of first compound, second compound 10 µM) is above 7.50. Also, the viability, T/C reads like this: (second compound 0.0316 µM, first compound 0.0316 µM) 102%; (second compound 0.0316 µM, first compound 0.1 µM) 58.3%; (second compound 0.0316 µM, first compound 0.316 µM) 5.38%; (second compound 0.0316 µM, first compound 1 µM) 0.53%; (second compound 0.0316 µM, first compound 3.16 µM) 0.02%; (second compound 0.0316 µM, first compound 10 µM) 0.56%. Moreover, the viability, T/C (second compound 0.1 µM, first compound 0.0316 µM) was 97.1%; the viability, T/C (second compound 0.1 µM, first compound 0.1 µM) was 64.3%; the viability, T/C (second compound 0.1 µM, first compound 0.316 µM) was 7.56%; the viability, T/C (second compound 0.1 µM, first compound 1 µM) was 0.08%; the viability, T/C (second compound 0.1 µM, first compound 3.16 µM) was 0.71%; the viability, T/C (second compound 0.1 µM, first compound 10 µM) is 0.06%. For the same compound, the viability, T/C was 90.5% (second compound 0.316 µM, first compound 0.0316 µM); 39.5% (second compound 0.316 µM, first compound 0.1 µM); 5.83% (second compound 0.316 µM, first compound 0.316 µM); 0.06% (second compound 0.316 µM, first compound 1 µM); 0.09% (second compound 0.316 µM, first compound 3.16 µM); 0.1% (second compound 0.316 µM, first compound 10 µM). The viability, T/C by setting is: (second compound 1 µM, first compound 0.0316 µM) 38.2%; (second compound 1 µM, first compound 0.1 µM) 18.5%; (second compound 1 µM, first compound 0.316 µM) 1.87%; (second compound 1 µM, first compound 1 µM) 0.1%; (second compound 1 µM, first compound 3.16 µM) 0.06%; (second compound 1 µM, first compound 10 µM) 0.08%. In addition, the viability, T/C (second compound 3.16 µM, first compound 0.0316 µM) is 10.9%; the viability, T/C (second compound 3.16 µM, first compound 0.1 µM) was 1.33%; the viability, T/C (second compound 3.16 µM, first compound 0.316 µM) was 0.19%; the viability, T/C (second compound 3.16 µM, first compound 1 µM) was 0.07%; the viability, T/C (second compound 3.16 µM, first compound 3.16 µM) was 0.12%; the viability, T/C (second compound 3.16 µM, first compound 10 µM) was 0.09%. In addition, the viability, T/C reads like this: (second compound 10 µM, first compound 0.0316 µM) 1.1%; (second compound 10 µM, first compound 0.1 µM) 0.76%; (second compound 10 µM, first compound 0.316 µM) 0.24%; (second compound 10 µM, first compound 1 µM) 0.36%; (second compound 10 µM, first compound 3.16 µM) 0.28%; (second compound 10 µM, first compound 10 µM) 0.21%.
On to `Cc1[nH]c2ccc(F)cc2c1-c1nc2c3cccnc3c3ncccc3c2[nH]1`, for which the pIC50 (compound alone, run of 02/20/2024) was below 5.00.
For `CC1COCCN1c1cc(-c2ccnn2C)c2ccnc(-c3ccn[nH]3)c2n1` (stereo unspecified), the viability, T/C runs as follows: (compound 0.0316 µM) 93.3% and 80.4% and 110%; (compound 0.1 µM) 40.7% and 25.8% and 39.3%; (compound 0.316 µM) 20.1% and 22% and 14.4%; (compound 1 µM) 20.6% and 15.7% and 21.6%; (compound 3.16 µM) 15.3% and 14.9% and 14.8%; (compound 10 µM) 12.3% and 12.6% and 11.2%. Besides, for the setting “curve of compound”, the pIC50 was 7.09 and 7.21 and 7.07.
Take `CN(C)c1ccc(Nc2c3ccc(NC(=O)CCN4CCCC4)cc3nc3cc(NC(=O)CCN4CCCC4)ccc23)cc1`: the viability, T/C reads like this: (compound 0.1 µM) 99.5% [middle of 12 runs]; (compound 10 µM) 11.4% [middle of 11 runs].
With `Cc1cnc(CNC(=O)c2c(=O)c3ccc(N4CCCN(C)CC4)nc3n3c2sc2ccccc23)cn1`, the viability, T/C (compound 0.0316 µM) was 93.8% [middle of 12 runs]; the viability, T/C (compound 0.1 µM) is 68.8% [middle of 12 runs]; the viability, T/C (compound 1 µM) was 31.6% [middle of 12 runs].
On to `C=CC(=O)N1CCN(c2nc(=O)n(-c3c(C)ccnc3C(C)C)c3nc(-c4c(O)cccc4F)c(F)cc23)C(C)C1` (stereo unspecified), for which the viability, T/C runs as follows: (compound 0.0316 µM) 108% (2×) and 110%; (compound 0.1 µM) 105% and 102% and 99.9%; (compound 0.316 µM) 118% and 108% and 110%; (compound 1 µM) 101% (2×) and 102%; (compound 3.16 µM) 99.1% and 101% and 97.7%; (compound 10 µM) 69.1% and 68% and 75.9%. Also, under “curve of compound”, the pIC50 was below 5.00.
With `O=C(c1cc(Cc2n[nH]c(=O)c3ccccc23)ccc1F)N1CCN(C(=O)C2CC2)CC1`, the viability, T/C (compound 0.0316 µM) was 111% and 115% and 109%; the viability, T/C (compound 0.1 µM) is 96.5% and 83.9% and 97.3%; the viability, T/C (compound 0.316 µM) was 120% and 96.5% and 93.9%; the viability, T/C (compound 1 µM) was 88.7% and 107% and 99.4%; the viability, T/C (compound 3.16 µM) was 87.6% and 84.9% and 93.7%; the viability, T/C (compound 10 µM) is 71% and 58.2% and 59.2%. For the setting “curve of compound”, the negative-log IC50 (pIC50) is below 5.00.
Take `COc1cc(C2c3cc4c(cc3C(OC3OC5COC(C)OC5C(O)C3O)C3COC(=O)C23)OCO4)cc(OC)c1O` (stereo unspecified): the viability, T/C (compound 0.0316 µM) was 94.7% and 99.8% (2×); the viability, T/C (compound 0.1 µM) is 96.7% and 94.9% and 84.3%; the viability, T/C (compound 0.316 µM) is 48.8% and 64% and 53.8%; the viability, T/C (compound 1 µM) is 22.1% and 20.2% and 30.3%; the viability, T/C (compound 3.16 µM) is 15.9% and 15.7% and 15.8%; the viability, T/C (compound 10 µM) is 12% and 11.2% and 17%. In addition, the pIC50 (curve of compound) is 6.51 and 6.34 and 6.42.
